Reference: patent US20240374573A1, “IMIDAZOLE CONTAINING COMPOUNDS, DERIVATIVES THEREFORE, AND USES THEREOF” (AglaeaPharma Inc., priority 2023, published 2024)

What follows are compounds tested against T1, α2AAR (α2A-adrenergic receptor) (Homo sapiens, UniProt P08913) (assay: α2AAR FLIPR assay (agonist activity)). Conditions: FLIPR, α2AAR cell line hosted in HEK293 cells; read-out: α2A agonist activity (EC50).
T1 construct: expressed in transfected cells; host or cells: HEK293
T1 sequence (P08913 1-465): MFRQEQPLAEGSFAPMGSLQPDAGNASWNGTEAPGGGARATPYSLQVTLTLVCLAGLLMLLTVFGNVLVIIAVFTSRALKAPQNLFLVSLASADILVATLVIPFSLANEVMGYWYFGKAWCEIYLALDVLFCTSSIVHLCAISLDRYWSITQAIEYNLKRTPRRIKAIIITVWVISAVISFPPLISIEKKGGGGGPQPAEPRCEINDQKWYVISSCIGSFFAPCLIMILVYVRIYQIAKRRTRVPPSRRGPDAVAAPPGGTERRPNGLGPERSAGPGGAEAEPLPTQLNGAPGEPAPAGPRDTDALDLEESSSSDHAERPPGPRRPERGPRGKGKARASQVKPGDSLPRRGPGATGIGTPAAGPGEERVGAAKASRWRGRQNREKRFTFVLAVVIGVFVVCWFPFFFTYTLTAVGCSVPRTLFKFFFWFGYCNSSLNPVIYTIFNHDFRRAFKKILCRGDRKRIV
Type: cell-based
Method: This experimental protocol involved cell seeding and a FLIPR assay using the α2AAR (α2A-adrenergic receptor) cell line hosted in HEK293 cells. […] On Day 1, the cell seeding process started with the removal of the culture medium, followed by rinsing the cells with DPBS (21-031-CVC, Corning). […] The cells were detached, resuspended in growth media, and centrifuged at room temperature at 1000 rpm for 5 minutes. After discarding the supernatant, the cell pellet was resuspended in growth media to a concentration of 10× 10^5 cells per mL. This suspension was added to 384-well plates (19-Jul-38, Greiner) at 20 μL per well and incubated overnight at 37° C. in 5% CO2.
A 250 mM Probenecid solution was prepared in this buffer. The Fluo-4 Direct™ Loading Buffer was made by dissolving Fluo-4 Direct™ crystals (F10471, Invitrogen) in the FLIPR Assay Buffer and adding Probenecid. The buffer was then vortexed and allowed to stand for over 5 minutes, shielded from light. For the FLIPR procedure, testing compounds for agonist activite were serially diluted and transferred to a 384-well compound plate (25-Jan-39, Greiner). The cell plate was then treated with 2× Fluo-4 Direct™ loading buffer and incubated for 50 minutes at 37° C. in a 5% CO2 atmosphere, followed by 10 minutes at room temperature. Subsequently, the FLIPR assay buffer was added to the compound plate, which is then centrifuged.
The cell plate was analyzed in the FLIPR Tetra+ System for fluorescence signals. For the agonist test, reference compounds were added to the cell plates, and fluorescence was measured. The “Max-Min” calculation began from Read 1 to the maximum allowed. The data were analyzed using Prism software to calculate activation percentage for agonists and inhibition percentage for antagonists. The results were then fitted using specific models to determine EC50 for agonists.
The experimental protocol utilized various reagents and apparatus, including Penicillin/Streptomycin (100×) (SV30010, Hyclone), Poly-L-lysine hydrobromide (P1399, Sigma), and different types of 384-well plates such as the 384-Well PP 2.0 Microplate (PP-0200, LABCYTE) and 384 well Low Dead Volume Microplate (LP-0200, LABCYTE). The use of specific reference compounds like UK14304 was also integral to the assay.

Structure (SMILES)	EC50
Cc1cccc(C(Cc2ccc(C(=O)O)c(O)c2)c2c[nH]cn2)c1C (stereo not drawn) [compound 218]	10 to 50 nM
CONC(=O)c1cccc(CC(c2c[nH]cn2)c2cccc(C)c2C)c1 (stereo not drawn) [compound 61]	10 to 50 nM
CNc1ccc(CC(c2c[nH]cn2)c2cccc(C)c2C)cc1 (stereo not drawn) [compound 203]	50 to 250 nM
CC(=O)N(C)c1ccc(CC(c2c[nH]cn2)c2cccc(C)c2C)cc1 (stereo not drawn) [compound 222]	10 to 50 nM
Cc1cccc(C(Cc2ccc(O)c(O)c2)c2c[nH]cn2)c1C (stereo not drawn) [compound 223]	10 to 50 nM
Cc1cccc(C(c2cccc(C(=O)CCC#N)c2)c2c[nH]cn2)c1C (stereo not drawn) [compound 85]	50 to 250 nM
Cc1cccc(C(c2cccc(NC(=S)CC3CCOCC3)c2)c2c[nH]cn2)c1C (stereo not drawn) [compound 161]	10 to 50 nM
Cc1cccc(C(Cc2ccc(S(=O)(=O)NC3COC3)cc2)c2c[nH]cn2)c1C (stereo not drawn) [compound 179]	< 10 nM
Cc1cccc(C(c2cccc(C(N)=O)c2)c2c[nH]cn2)c1C (stereo not drawn) [compound 5]	10 to 50 nM
CNC(=O)NCCOCCOCC(c1c[nH]cn1)c1cccc(C)c1C (stereo not drawn) [compound 17]	10 to 50 nM
CONC(=O)c1cccc(C(c2c[nH]cn2)c2cccc(C)c2C)c1O (stereo not drawn) [compound 8]	10 to 50 nM
Cc1cccc(C(c2cccc(NS(=O)(=O)CC3CCCCO3)c2)c2c[nH]cn2)c1C (stereo not drawn) [compound 173]	10 to 50 nM
CONC(=O)c1cccc(C(c2c[nH]cn2)c2cccc(Cl)c2Cl)c1 (stereo not drawn) [compound 35]	50 to 250 nM
CONC(=O)c1ccc2ccccc2c1Nc1ccncc1 [compound 601]	50 to 250 nM
Cc1cccc(C(c2cccc(C(=O)NC3CCOCC3)c2)c2c[nH]cn2)c1C (single isomer, unassigned) [121-A]	> 1000 nM
COCCOCCOCCOCCOCCc1ccc2ccccc2c1Nc1ccncc1 [compound 602]	50 to 250 nM
CC(=O)NCCOCCOCC(c1c[nH]cn1)c1cccc(C)c1C (stereo not drawn) [compound 25]	50 to 250 nM
CNC(=O)NCCOCCOCC(c1c[nH]cn1)c1cccc(C)c1C (single isomer, unassigned) [17-A]	> 1000 nM
Cc1cccc(C(c2cccc(NC3(C)COC3)c2)c2c[nH]cn2)c1C (stereo not drawn) [compound 185]	50 to 250 nM
Cc1cccc(C(c2cccc(NC(=O)CC#N)c2)c2c[nH]cn2)c1C (stereo not drawn) [compound 10]	10 to 50 nM
Cc1cccc(C(c2cccc(NC(=O)CC3CCCCC3)c2)c2c[nH]cn2)c1C (stereo not drawn) [compound 178]	10 to 50 nM
Cc1cccc(C(c2cccc(C(=O)N3CCOCC3)c2)c2c[nH]cn2)c1C (stereo not drawn) [compound 23]	250 to 1000 nM
Cc1cccc(C(c2cccc(N)c2)c2c[nH]cn2)c1C (stereo not drawn) [compound 39]	50 to 250 nM
Cc1cccc(C(COCCOCCN)c2c[nH]cn2)c1C (stereo not drawn) [compound 19]	50 to 250 nM
Cc1cccc(C(c2cccc(C(N)=O)c2)c2c[nH]cn2)c1C (single isomer, unassigned) [5-A]	> 1000 nM
Cc1cccc(C(c2c[nH]cn2)c2cccc(C(N)=O)c2O)c1C (stereo not drawn) [compound 9]	10 to 50 nM
CONC(=O)c1cccc(C(c2c[nH]cn2)c2cccc(C)c2C)c1 (single isomer, unassigned) [1-A]	> 1000 nM

Structure (SMILES)	EC50
Cc1cccc(C(c2cccc(NS(=O)(=O)C[C@@H]3CCCO3)c2)c2c[nH]cn2)c1C (stereo partly drawn) [compound 172]	10 to 50 nM
Cc1cccc(C(c2c[nH]cn2)c2cccc(S(N)(=O)=O)c2O)c1C (stereo not drawn) [compound 150]	50 to 250 nM
Cc1cccc(C(Cc2ccc(C(C)C(=O)O)cc2)c2c[nH]cn2)c1C (single isomer, unassigned) [174-A]	> 1000 nM
Cc1cccc(C(c2cccc(NC(=O)CC#N)c2)c2c[nH]cn2)c1C (single isomer, unassigned) [10-A]	> 1000 nM
Cc1cccc(C(c2ccc(O)cc2)c2c[nH]cn2)c1C (stereo not drawn) [compound 13]	> 1000 nM
COCCOCCOCCOCC(c1c[nH]cn1)c1cccc(C)c1C (stereo not drawn) [compound 16]	10 to 50 nM
CONC(=O)c1cccc(C(c2c[nH]cn2)c2cccc(C(F)(F)F)c2C)c1 (stereo not drawn) [compound 52]	250 to 1000 nM
CNC(=O)Nc1ccc(C(c2c[nH]cn2)c2cccc(C)c2C)cc1 (stereo not drawn) [compound 14]	> 1000 nM
CONC(=O)c1cccc(C(c2c[nH]cn2)c2cccc(Cl)c2C)c1 (stereo not drawn) [compound 36]	50 to 250 nM
Cc1cccc(C(c2cccc(OCCNC(=O)Nc3ccncn3)c2)c2c[nH]cn2)c1C (stereo not drawn) [compound 4]	50 to 250 nM
Cc1cccc(C(c2ccc(C(=O)O)cc2)c2c[nH]cn2)c1C (stereo not drawn) [compound 12]	> 1000 nM
Cc1cccc(C(c2cccc(C(=O)O)c2)c2c[nH]cn2)c1C (stereo not drawn) [compound 11]	250 to 1000 nM
COCCOCCNC(=O)c1cccc(C(c2c[nH]cn2)c2cccc(C)c2C)c1 (stereo not drawn) [compound 3]	10 to 50 nM
COCCOCCOCCOCCOCCOc1ccc(C(c2c[nH]cn2)c2cccc(C)c2C)cc1 (stereo not drawn) [compound 15]	> 1000 nM
Cc1cccc(C(CN2CCC(NS(C)(=O)=O)CC2)c2c[nH]cn2)c1C (stereo not drawn) [compound 168]	50 to 250 nM
Cc1cccc(C(c2cccc(Nc3ccccn3)c2)c2c[nH]cn2)c1C (stereo not drawn) [compound 59]	50 to 250 nM
Cc1cccc(C(c2cccc(NC(=O)C3C4CC5CC(C4)CC3C5)c2)c2c[nH]cn2)c1C (stereo not drawn) [compound 170]	50 to 250 nM
Cc1cccc(C(c2cccc(C(=O)N(C)C)c2)c2c[nH]cn2)c1C (stereo not drawn) [compound 33]	50 to 250 nM
Cc1cccc(C(Cc2ccc(C(C)C(=O)O)cc2)c2c[nH]cn2)c1C (single isomer, unassigned) [174-C]	250 to 1000 nM
COCCOCCOCC(c1c[nH]cn1)c1cccc(C)c1C (stereo not drawn) [compound 37]	50 to 250 nM
CONC(=O)c1cccc(C(c2c[nH]cn2)c2cccc(O)c2C)c1 (stereo not drawn) [compound 7]	250 to 1000 nM
COCCOCCOCCOCCOCCOCCCC(c1c[nH]cn1)c1cccc(C)c1C (stereo not drawn) [compound 21]	> 1000 nM
Cc1cccc(C(COCCOCCNS(C)(=O)=O)c2c[nH]cn2)c1C (stereo not drawn) [compound 18]	10 to 50 nM
Cc1cscc1C(c1cccc(NS(C)(=O)=O)c1)c1c[nH]cn1 (stereo not drawn) [compound 403]	50 to 250 nM
Cc1cccc(C(c2cccc(C(=O)NCCO)c2)c2c[nH]cn2)c1C (stereo not drawn) [compound 2]	10 to 50 nM
Cc1cccc(C(c2c[nH]cn2)c2ccccc2C(N)=O)c1C (stereo not drawn) [compound 34]	> 1000 nM
Cc1cccc(C(c2c[nH]cn2)c2cccc(C(N)=O)c2Cl)c1C (stereo not drawn) [compound 38]	10 to 50 nM

Same assay, conditions: α2A agonist activity (EC50, nM)

Structure (SMILES)	EC50
CNC(=O)c1cccc(C(c2c[nH]cn2)c2cccc(C)c2C)c1 (stereo not drawn) [compound 6]	10 to 50 nM
CNCCOCCOCC(c1c[nH]cn1)c1cccc(C)c1C (stereo not drawn) [compound 24]	250 to 1000 nM

The compounds below were run against T2, α2AAR (Homo sapiens, UniProt P08913) (assay: α2AAR binding assay ([3H]-RX 821002 radioligand)). Conditions: [3H]-RX 821002 0.5 nM, HEK293 membranes; read-out: α2A affinity (Ki).
T2 construct: host or cells: HEK293 (membranes)
T2 sequence (P08913 1-465): T1 sequence (P08913 1-465)
Method: The α2AR Binding Assay was conducted using a stable HEK293 cell line, specifically constructed by WuXi AppTec for targeting α2AAR. […] Both the assay and wash buffers consist of 50 mM Tris-HCl at a pH of 7.4 (Tris base, Sigma, T1503-1 KG).
The procedure initiated with the preparation of test compounds and a reference compound, yohimbine (Sigma, Y3125), through an 8-point 4-fold serial dilution, transferring 1 μL of each to the assay plate. […] After scaling, the plates were agitated at room temperature for one hour. Subsequently, the Unifilter-96 GF/C filter plates were pre-soaked with 0.3% PEI (Sigma, P3143) for at least half an hour. The reaction mixtures were then filtered and washed four times with cold wash buffer using a Perkin Elmer Cell harvester. Post-filtration, the plates were dried at 50° C. for one hour. […] The top of the plates was then sealed with TopSeal-A sealing film. The trapped 3H was quantified using a Perkin Elmer MicroBeta2 Reader. […] Finally, the data were analyzed with Prism 5.0 software, employing the “log (inhibitor) vs. response-Variable slope” model for data fitting. This comprehensive process ensured precise assessment of the binding affinity of compounds to the α2AAR.

Structure (SMILES)	Ki
Cc1cccc(C(Cc2ccc(C(=O)O)c(O)c2)c2c[nH]cn2)c1C (stereo not drawn) [compound 218]	50 to 250 nM
CONC(=O)c1cccc(CC(c2c[nH]cn2)c2cccc(C)c2C)c1 (stereo not drawn) [compound 61]	10 to 50 nM
CNc1ccc(CC(c2c[nH]cn2)c2cccc(C)c2C)cc1 (stereo not drawn) [compound 203]	< 10 nM
CC(=O)N(C)c1ccc(CC(c2c[nH]cn2)c2cccc(C)c2C)cc1 (stereo not drawn) [compound 222]	10 to 50 nM
Cc1cccc(C(Cc2ccc(O)c(O)c2)c2c[nH]cn2)c1C (stereo not drawn) [compound 223]	< 10 nM
Cc1cccc(C(c2cccc(C(=O)CCC#N)c2)c2c[nH]cn2)c1C (stereo not drawn) [compound 85]	10 to 50 nM
Cc1cccc(C(c2cccc(NC(=S)CC3CCOCC3)c2)c2c[nH]cn2)c1C (stereo not drawn) [compound 161]	< 10 nM
Cc1cccc(C(Cc2ccc(S(=O)(=O)NC3COC3)cc2)c2c[nH]cn2)c1C (stereo not drawn) [compound 179]	< 10 nM
CONC(=O)c1cc(C(c2c[nH]cn2)c2cccc(C)c2C)ccc1F (stereo not drawn) [compound 53]	250 to 1000 nM
COCCOCc1cccc(Cl)c1NC1=NCCN1 [compound 520]	250 to 1000 nM
